{"source": "patent US20220151959A1", "about": "“METHOD FOR TREATING ALLERGIC SKIN DISEASE OR PRURITUS CUTANEOUS” (KOREA RESEARCH INSTITUTE OF BIOSCIENCE AND BIOTECHNOLOGY, priority 2019, published 2022)", "key": {"[1]": {"system": "interleukin-4 (IL-4)", "experiment": "Inflammatory cytokine expression in skin tissue of oxazolone model (qPCR), IL-4", "format": "in vivo, mouse", "conditions": "group treated with both colchicine (0.05%) and oxazolone, compared with oxazolone treatment, FIG. 5", "method": "(§1) Specifically, 150 μl of 3% 4-ethoxymethylene-2-phenyl-2-oxazolin-5-one (oxazolone) was applied on an abdominal skin of a 6-week-old laboratory animal to induce an immune response, and 20 μl of the same compound diluted to 0.1% was applied on the ear of a laboratory animal 3 times a week (total 6 times) to induce a skin disease. The ear of the laboratory animal was treated with 20 μl of the colchicine according to the present invention at a concentration of 0.05% 3 times a week (total 6 times). A negative control group treated with only ethanol which was a solvent and a positive control group treated with only oxazolone were also reflected in the experiment. The number of mice in each experiment group was maintained at 10 or more and the experiment was repeated 3 times.\n(§2) After completing the application experiment of Example 2, a skin tissue was collected from each mouse and crushed with a tissue crusher to extract RNA. The crushed tissue powder was dissolved in a Trizol reagent solution (Sigma) and RNA was extracted using a RNeasy mini kit (Qiagen). The extracted RNA was reverse-transcribed to cDNA using ImProm-II™ Reverse Transcription kit (Promega), and then a cytokine degree present in the skin tissue was measured by a quantitative PCR (qPCR) method using CFX96™ Real-Time PCR Detection System (Bio-Rad). […]"}, "[2]": {"system": "interleukin-13 (IL-13)", "experiment": "Inflammatory cytokine expression in skin tissue of oxazolone model (qPCR), IL-13", "format": "in vivo, mouse", "conditions": "group treated with both colchicine (0.05%) and oxazolone, compared with oxazolone treatment, FIG. 5", "method": "as §1, §2"}, "[3]": {"system": "filaggrin", "experiment": "Filaggrin expression in mouse skin tissue after colchicine application (qPCR)", "format": "in vivo, mice", "conditions": "0.04% (w/w) and 0.1% (w/w) applied on back and ear skin twice a week for 4 weeks or more, FIG. 1", "method": "Specifically, colchicine was continuously applied on back and ear skin areas of laboratory mice at a low concentration of 0.04% (w/w) and at a high concentration of 0.1% (w/w) twice a week for 4 weeks or more. After completing the application experiment, a skin tissue was collected from each mouse and crushed with a tissue crusher to extract RNA. The crushed tissue powder was dissolved in a Trizol reagent solution (Sigma) and RNA was extracted using a RNeasy mini kit (Qiagen). The extracted RNA was reverse-transcribed to cDNA using IMPROM-II™ Reverse Transcription kit (Promega), and then an amount of filaggrin present in the skin tissue was measured by a quantitative PCR (qPCR) method using CFX96™ Real-Time PCR Detection System (Bio-Rad)."}, "[4]": {"experiment": "Moisture loss, skin barrier index and composite index by transdermal moisture loss meter (Tewameter)", "format": "in vivo, mice", "method": "Colchicine was continuously applied on back and ear skin areas of laboratory mice at concentration of 0.05% (w/w) twice a week for 4 weeks or more, and then a moisture loss and skin barrier and composite indexes were measured by a transdermal moisture loss meter (Tewameter).\nThe experiment results are shown in FIG. 2, and were compared with an experiment animal group with no colchicine applied."}, "[5]": {"system": "allergic skin disease model (atopic dermatitis model) mouse derived by oxazolone", "experiment": "Oxazolone-derived allergic skin disease (atopic dermatitis) model mouse: naked-eye observation and Hematoxylin and Eosin staining of ear skin", "format": "in vivo", "method": "as §1\nIn addition, for pathological observation of skin after completing the application, an ear skin tissue of each mouse was collected and stained with Hematoxylin and Eosin, and the results are shown in FIG. 4."}, "[6]": {"conditions": "0.05% (w/w) on back and ear skin twice a week for 4 weeks or more, Tewameter, vs group with no colchicine applied, FIG. 2"}, "[7]": {"conditions": "20 μl of 0.05% colchicine on ear, total 6 times, with oxazolone treatment, H&E staining of ear skin, FIG. 4"}}}
{"smiles": "COc1cc2c(c(OC)c1OC)-c1ccc(OC)c(=O)cc1[C@@H](NC(C)=O)CC2", "note": "[colchicine]", "values": [{"measurement": "expression level of IL-4 in skin tissue", "setting": "[1]", "result": "≤ 50", "unit": "%"}, {"measurement": "expression level of IL-13 in skin tissue", "setting": "[2]", "result": "≤ 50", "unit": "%"}, {"measurement": "expression amount of filaggrin", "setting": "[3]", "result": "increased an expression amount of filaggrin concentration-dependently"}, {"measurement": "skin barrier index", "setting": "[4]; [6]", "result": "greatly increased"}, {"measurement": "skin composite index", "setting": "[4]; [6]", "result": "greatly increased"}, {"measurement": "skin moisture loss", "setting": "[4]; [6]", "result": "decreased"}, {"measurement": "side effect with long-term application", "setting": "[4]; skin application to mice for 4 weeks or more", "result": "without any side effect"}, {"measurement": "skin condition observed with the naked eye (ear)", "setting": "[5]; 20 μl of 0.05% colchicine on ear 3 times a week (total 6 times), simultaneously with oxazolone, FIG. 3", "result": "very similar to that of a normal group treated with only a solvent"}, {"measurement": "epithelial thickness", "setting": "[5]; [7]", "result": "decreased to a degree very similar to the normal case"}, {"measurement": "total skin thickness", "setting": "[5]; [7]", "result": "decreased to a degree very similar to the normal case"}, {"measurement": "skin abnormal symptom", "setting": "[5]; control group treated with only colchicine, H&E staining of ear skin", "result": "not detected"}]}
